From patent publication US9012492B2, “Apocynin-lipoic acid conjugates and uses thereof” (priority 2011, dated 2015)
Where two headings read alike, the source gives them in different places.

Legend:
[1] = Stability in sodium phosphate buffer (HPLC); type: physicochemical; conditions: for Half life: buffer; for half-life: buffer without microsomes and without NADPH
Protocol: The stability of the compound of Formula (Ia) in a sodium phosphate buffer (50 mM, pH 7.4) was evaluated using HPLC. […] Area counts of apocynin and lipoid acid were found in 0 minute samples and were generally constant until the last time point measured (see: FIGS. 11-12 and Tables 5-6).

rat liver microsomes = assay: Metabolic stability using rat liver microsomes; type: in vitro ADME; design: half-life: dose or concentration left out as unconfirmed
Source text: (§1) Table 7 summarizes the experimental conditions used in the studies of the metabolic stability of the compound of Formula (Ia) using rat liver microsomes. Table 8 and FIG. 13 show the results from the studies of the metabolic stability of the compound of Formula (Ia) using rat liver microsomes. [table]

[2] = test system: dog liver microsomes (DLM); assay: Metabolic stability using dog liver microsomes; type: in vitro ADME
Source text: (§2) Table 9 summarizes the experimental conditions used in the studies of the metabolic stability of the compound of Formula (Ia) using dog liver microsomes and human liver microsomes.

[3] = test system: human liver microsomes (HLM); assay: Metabolic stability using human liver microsomes; type: in vitro ADME
Source text: as §2

Sprague-Dawley rats = conditions: previous studies, cited from earlier work
[4] = test system: markers of oxidative stress (SOD1, SOD2, GSH, GSSG, H2O2, HNE-His adducts, DNA fragmentation); conditions: administered 30 min prior to I/R; same model, previously demonstrated; cited from earlier work
N27 neuronal cells = assay: DNA fragmentation ELISA after hydrogen peroxide exposure of N27 neuronal cells; type: cell-based; conditions: for DNA cell fragmentation: n = 4
Protocol: Specifically, the effects of (Ia) on oxidative stress in N27 neuronal cells, a dopaminergic cell line were studied. […]
The cells were then lysed, and DNA fragmentation was determined by ELISA assay.

[5] = Metabolic stability using rat liver microsomes; type: in vitro ADME; design: half-life: dose or concentration left out as unconfirmed; conditions: rat, rat liver microsomes, pH 7.4
Source text: as §1

[6] = Metabolic stability using dog liver microsomes; type: in vitro ADME; conditions: dog, dog liver microsomes, pH 7.4; DLM control (without NADPH)
Source text: as §2

[7] = Metabolic stability using human liver microsomes; type: in vitro ADME; conditions: human
Source text: as §2

[8] = matrix buffer (no microsomes, no NADPH), DLM/HLM study
[9] = matrix buffer (no microsomes, no NADPH), rat liver microsome study

For “1,2-dithiolane-2-pentanoic acid [lipoic acid]”, the “CLintr (mL/min/g liver)” value [1] was 0.9 mL/min/g liver, the “Half life” value [1] was >30 min and the “% Metabolism in 30 minutes” value [1, 8] was 0%. The “% Metabolism in 30 minutes” value [1, 9] was 0%, the “CLintr (mL/min/g liver)” value ([1]; rat) was <0.6 mL/min/g liver and the “Half life” value ([1]; rat) was >30 min. The “CLintr (mL/min/g liver)” value (rat liver microsomes; rat, microsomes) was <0.6 mL/min/g liver, the “Half life” value (rat liver microsomes; rat, microsomes) was >30 min and the “Half life” value ([2]; dog, microsomes) was >30 min. For the same molecule, the “% Metabolism in 30 minutes” value [3] was 0%, the “CLintr (mL/min/g liver)” value ([3]; human, microsomes) was <0.6 mL/min/g liver and the “Half life” value ([3]; human, microsomes) was >30 min. The “neuroprotection when administered just prior to the beginning of reperfusion” value (Sprague-Dawley rats; 5 mg/kg) was “did not result in significant neuroprotection”, the most effective dose (Sprague-Dawley rats; I/R model) was 5 mg/kg and the SOD2 activity [4] was “increased SOD2 activity”.
With COc1cc(C(C)=O)ccc1O [Apocynin, 4-hydroxy-3-methoxyacetophenone] the “DNA fragmentation induced by hydrogen peroxide reduced by” value (N27 neuronal cells; pretreatment 100 μM) was 41%, the DNA cell fragmentation (N27 neuronal cells; pretreatment 100 μM, then hydrogen peroxide (1 mM)) was 244 ± 32 percentage of control and the half-life [1, 8] was > 30 min. The half-life [1, 9] was > 30 min, the “% Metabolism in 30 minutes” value [1, 8] was 1% and the “CLintr (mL/min/g liver)” value [1, 8] was <0.6 mL/min/g liver. The “% Metabolism in 30 minutes” value [1, 9] was 0%, the “CLintr (mL/min/g liver)” value [1, 9] was <0.6 mL/min/g liver and the half-life at 0.5 µM ([5]; RLM, control (without NADPH)) was > 30 min. For the same molecule, the “% Metabolism in 30 minutes” value (rat liver microsomes; RLM, control (without NADPH)) was 2%, the “CLintr (mL/min/g liver)” value (rat liver microsomes; RLM, control (without NADPH)) was <0.6 mL/min/g liver and the “% Metabolism in 30 minutes” value (rat liver microsomes; RLM, reaction (with NADPH)) was 0%. The “CLintr (mL/min/g liver)” value (rat liver microsomes; RLM, reaction (with NADPH)) was <0.6 mL/min/g liver, the “Half life” value (rat liver microsomes; RLM, reaction (with NADPH)) was >30 min and the half-life at 0.5 µM [6] was > 30 min. The “% Metabolism in 30 minutes” value ([2]; DLM control (without NADPH)) was 0%, the “CLintr (mL/min/g liver)” value ([2]; DLM control (without NADPH)) was <0.6 mL/min/g liver and the “% Metabolism in 30 minutes” value ([2]; DLM reaction (with NADPH)) was 30%. The “CLintr (mL/min/g liver)” value ([2]; DLM reaction (with NADPH)) was 1.6 mL/min/g liver, the “Half life” value ([2]; DLM reaction (with NADPH)) was >30 min and the half-life ([7]; human liver microsomes, HLM control (without NADPH)) was > 30 min. For the same molecule, the “% Metabolism in 30 minutes” value ([3]; HLM control (without NADPH)) was 0%, the “CLintr (mL/min/g liver)” value ([3]; HLM control (without NADPH)) was <0.6 mL/min/g liver and the “% Metabolism in 30 minutes” value ([3]; HLM reaction (with NADPH)) was 0%. The “CLintr (mL/min/g liver)” value ([3]; HLM reaction (with NADPH)) was <0.6 mL/min/g liver, the “Half life” value ([3]; HLM reaction (with NADPH)) was >30 min and the SOD2 activity [4] was “ineffective”.
With c1ccc2c(c1)[I+]c1ccccc1-2 [DPI, diphenyleneiodonium] the “DNA fragmentation induced by hydrogen peroxide reduced by” value (N27 neuronal cells; pretreatment 10 μM) was 48% and the DNA cell fragmentation (N27 neuronal cells; pretreatment 10 μM, then hydrogen peroxide (1 mM)) was 208 ± 38 percentage of control.
In the case of OO [Hydrogen Peroxide, hydrogen peroxide], the DNA cell fragmentation (N27 neuronal cells; hydrogen peroxide alone (6 hr)) is reported as 428 ± 52 percentage of control.
In the case of O=C(O)Cc1ccccc1Nc1c(Cl)cccc1Cl [diclofenac], the half-life ([5]; matrix RLM (positive control)) is reported as 11 min, the “% Metabolism in 30 minutes” value (rat liver microsomes; matrix RLM (positive control)) is reported as 84% and the “CLintr (mL/min/g liver)” value (rat liver microsomes; matrix RLM (positive control)) is reported as 6.4 mL/min/g liver. For the same molecule, the half-life ([7]; microsomes, matrix HLM (positive control)) was 9 min, the “% Metabolism in 30 minutes” value ([3]; matrix HLM (positive control)) was 92% and the “CLintr (mL/min/g liver)” value ([3]; matrix HLM (positive control)) was 8.4 mL/min/g liver.
